We go through eight compounds from PubChem BioAssay (NCI).

Test in all cases: NCI anticancer screen, dose series, 48 h
For assay [1], the system named is UACC-257 melanoma.
Assay [2] deals with SW-620 colon.
In assay [3] the test system is CCRF-CEM leukemia.
In assay [4] the test system is EKVX NSCLC.
In assay [5] the test system is LOX IMVI melanoma.
For assay [6], the system named is CAKI-1 renal.
The subject of assay [7] is PC-3 prostate.
The subject of assay [8] is BT-549 breast.
Assay [9] relates to MCF7 breast.
In assay [10] the test system is T-47D breast.
The subject of assay [11] is SNB-19 CNS.
Assay [12] concerns SN12C renal.
For assay [13], the system named is A498 renal.
Assay [14] has as its system MDA-N.
The test system of assay [15] is K-562 leukemia.
Assay [16] deals with HS 578T breast.
Assay [17] relates to SR leukemia.
The subject of assay [18] is NCI-H522 lung.

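Each compound was tested at five concentrations against cells in 96-well plates for 48 hours. At the TGI there is no net growth.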

With `N[C@@H](Cc1ccccc1)C(=O)N1CCC[C@@H]1P(=O)(Oc1ccccc1)Oc1ccccc1`, the TGI in [1], in [2], in [3], in [4], in [5] and in assay [6] was greater than 100 µM in each case. Besides, the TGI in assay [7], in assay [8], in assay [9], in assay [10], in assay [11] and in assay [12] was greater than 100 µM throughout. Moreover, the TGI in assay [13], in assay [14], in assay [15] and in assay [16] was greater than 100 µM in each case.
As to `CC(C)(C)[Si](C)(C)OCC1OC(n2ccc(=O)[nH]c2=O)C(O[Si](C)(C)C(C)(C)C)/C1=C/C#N` (stereo not drawn), the TGI in assay [1] was greater than 100 µM; in [17] it was greater than 100 µM; in [2] it was greater than 100 µM; in [3] it was greater than 100 µM; in assay [4], greater than 100 µM; in assay [5], greater than 51.2 µM. For the same compound, the TGI was 98.2 µM in assay [6]; greater than 100 µM in assay [7]; greater than 100 µM in [8]; greater than 61.9 µM in [9]; greater than 100 µM in assay [18]; greater than 100 µM in assay [10]. Moreover, the TGI in assay [11] is greater than 100 µM; in [12], 32.5 µM; in [13], 76.6 µM; in assay [14], greater than 85.7 µM; in assay [16] it was greater than 100 µM.
`O=C(/C=C/c1ccccc1)Oc1ccc(C(=O)/C=C/c2ccccc2)cc1`: the TGI was found to be 20.3 µM in [1]; 6.82 µM in assay [17]; 18.6 µM in assay [2]; 10.9 µM in assay [3]; 22 µM in [4]; 17.7 µM in assay [5]. Also, the TGI in [6] was 19.8 µM; in assay [7], greater than 64.9 µM; in [8], 17.7 µM; in assay [9] it was greater than 31.6 µM; in [18], 23.6 µM; in assay [10], 15.6 µM. In addition, the TGI is 38.5 µM in [11]; 15.2 µM in [12]; 12.6 µM in assay [14]; greater than 29.8 µM in [15]; 69.4 µM in assay [16].
As to `CCN1CN(c2ccccc2)C2(CCN(CC3COc4ccccc4O3)CC2)C1=O` (stereo not drawn), the TGI in [1] is greater than 100 µM; in assay [17] it was greater than 100 µM; in [2] it was greater than 100 µM; in assay [3] it was 83.3 µM; in assay [5], 45.2 µM; in assay [6], greater than 100 µM. For the same compound, the TGI in assay [7] is 79.2 µM; in [8] it was 34.7 µM; in assay [9] it was 77.6 µM; in assay [18], 40.8 µM; in [10], 67.4 µM; in assay [11], greater than 100 µM. Also, the TGI in [12] is greater than 100 µM; in [13], 72.5 µM; in [14], 6.54 µM; in assay [15], greater than 100 µM; in [16], 60.2 µM.
Turning to `CC(C)c1cc2c(c(O)c1O)[C@@]1(C(=O)O)CCCC(C)(C)[C@@H]1CC2`, the TGI in assay [1] was 33.4 µM; in assay [17] it was 33.7 µM; in assay [2] it was greater than 100 µM; in assay [3], 42.3 µM; in assay [4] it was 30.8 µM; in assay [5], 53 µM. The TGI stood at 51.8 µM in assay [6]; 33.9 µM in [7]; 28.7 µM in [8]; 45.2 µM in assay [9]; 25.8 µM in [18]; 55 µM in assay [10]. For the same compound, the TGI is 64.8 µM in assay [12], greater than 100 µM in [14], greater than 100 µM in [15] and 67.8 µM in assay [16].
Consider `CSc1cc(-c2cccs2)sc1-c1cc(SC)c(-c2sc(-c3sc(-c4cccs4)cc3SC)cc2SC)s1`, for which the TGI in [1], in [2], in [3], in assay [4], in [5] and in assay [6] was greater than 100 µM each time. For the same compound, the TGI in [7], in assay [8], in [9], in [18], in assay [10] and in [11] was greater than 100 µM in each case. Besides, the TGI in assay [12], in [13], in [14], in assay [15] and in [16] was greater than 100 µM throughout.
Take `CCNC(=S)NNC(=O)C12CC3CC(CC(C3)C1)C2`: the TGI in assay [1], in assay [2], in [3], in assay [5], in assay [6] and in [7] was greater than 100 µM in each case. In addition, the TGI in assay [8], in [9], in assay [18], in [10], in [11] and in [12] was greater than 100 µM in each case. The TGI in [13], in [14], in assay [15] and in [16] was greater than 100 µM each time.
`O=[N+]([O-])C(=C(Nc1ccccc1)Nc1ccccc1)C(Cl)=C(Cl)Cl`: the TGI worked out at 30.7 µM in assay [1]; 30.9 µM in assay [2]; 28.1 µM in [3]; 33.1 µM in assay [4]; 25.1 µM in assay [5]; 33.4 µM in assay [6]. Besides, the TGI in assay [7] amounted to 29.6 µM; in [8], 29.6 µM; in assay [9], 34.4 µM; in assay [18], 39.6 µM; in [10], 50.9 µM; in [11], 32.9 µM. The TGI in assay [12] is 35.5 µM; in assay [13], 26.2 µM; in assay [14] it was 27.2 µM; in assay [15], 33.4 µM; in assay [16] it was 55.5 µM.
